Data on eleven molecules can be found in US10000527B2, “11-substituted bile acid derivatives, process for the preparation thereof and use of these compounds as medicaments” (priority 2013, dated 2018).

The subject of data set [1] is A549 (Human lung adenocarcinoma epithelial cell line). Briefly: Anti-cancer screening, A549 cell proliferation. It is filed as cell-based. The settings on record: for IC50: concentration required to inhibit 50% of the cell proliferation; for IC90: concentration required to inhibit 90% of the cell proliferation, read-out: MIC.
The test system of data set [2] is HeLa (Human Cervix epithelioid carcinoma cell line). The experiment in a line: Anti-cancer screening, HeLa cell proliferation. It is filed as cell-based. Conditions: for IC50: concentration required to inhibit 50% of the cell proliferation; for IC90: concentration required to inhibit 90% of the cell proliferation, read-out: MIC.
For data set [3], the system named is Panc-1 (Human pancreas carcinoma cell line). Briefly: Anti-cancer screening, Panc-1 cell proliferation. The settings on record: for IC50: concentration required to inhibit 50% of the cell proliferation; for IC90: concentration required to inhibit 90% of the cell proliferation, read-out: MIC. It is filed as cell-based.
For data set [4], the system named is THP-1 (Human acute monocytic leukemia cell line). Briefly: Anti-cancer screening, THP-1 cell proliferation. It is filed as cell-based. The settings on record: for IC50: concentration required to inhibit 50% of the cell proliferation; for IC90: concentration required to inhibit 90% of the cell proliferation, read-out: MIC.
The test system of data set [5] is M. Tuberculosis. The experiment in a line: Anti TB ex vivo infection model, dormant. The format is cell-based. The settings on record: Mycobacterium tuberculosis.
The test system of data set [6] is M. Tuberculosis H37Ra (ACTIVE). The experiment in a line: Anti TB in vitro, active. It is filed as cell-based, Mycobacterium tuberculosis H37Ra. Conditions: Mycobacterium tuberculosis.
Data set [7] deals with M. Tuberculosis H37Ra (DORMANT). The experiment in a line: Anti TB in vitro, dormant. Conditions: Mycobacterium tuberculosis. The format is cell-based, Mycobacterium tuberculosis H37Ra.
The subject of data set [8] is M. Tuberculosis. Briefly: Anti TB ex vivo infection model, active. The format is cell-based. The settings on record: Mycobacterium tuberculosis.
Setting [9] is: In Vitro, H37Ra ACTIVE, read-out: IC 50.
Where [10] appears, read: In Vitro, H37Ra ACTIVE, read-out: MIC.
Setting [11] is: In Vitro, H37Ra DORMANT, read-out: IC 50.
Setting [12] is: In Vitro, H37Ra DORMANT, read-out: MIC.

What is called MIC is the lowest concentration found to suppress growth. A word on the melting point: it is the temperature, or range, at which the solid turns liquid.

The structures appear in SMILES notation. Values after ≈ are worked out from the molar mass of the structure shown. Where two headings read alike, the source gives them in different places.

Turning to `COC(=O)CC[C@@H](C)C1CCC2C3C([C@H](n4cc(-c5ccccc5)nn4)C(=O)[C@@]21C)[C@@]1(C)CC[C@@H](OC(C)=O)C[C@H]1C[C@H]3OC(C)=O` (stereo partly drawn) [Compound 1, (3R,5S,7R,10S,11S,13R)-17-((R)-5-methoxy-5-oxopentan-2-yl)-10,13-dimethyl-12-oxo-11-(4-phenyl-1H-1,2,3-triazol-1-yl)hexadecahydro-1H-cyclopenta[a]phenanthrene-3,7-diyl diacetate], the IC50 is over 100 µg/mL in data set [1], 7.02 µg/mL in data set [2], over 100 µg/mL in data set [3] and over 100 µg/mL in data set [4]. For the same molecule, the IC90 was over 100 µg/mL in [1], 99.1 µg/mL in data set [2], over 100 µg/mL in data set [3] and over 100 µg/mL in data set [4].

On to `CCCCCCc1cn([C@@H]2C(=O)[C@@]3(C)C(CCC3[C@H](C)CCC(=O)OC)C3C2[C@@]2(C)CC[C@@H](OC(C)=O)C[C@H]2C[C@H]3OC(C)=O)nn1` (stereo partly drawn) [Compound 2, (3R,5S,7R,10S,11S,13R)-11-(4-hexyl-1H-1,2,3-triazol-1-yl)-17-((R)-5-methoxy-5-oxopentan-2-yl)-10,13-dimethyl-12-oxohexadecahydro-1H-cyclopenta[a]phenanthrene-3,7-diyl diacetate], for which the IC50 is 0.13 µg/mL with M. Tuberculosis [5]; 0.64 µg/mL in data set [6] (setting [9]); over 100 µg/mL in data set [1]; 6.59 µg/mL in [2]; 0.17 µg/mL in data set [7] (setting [11]); over 100 µg/mL in [3]. Besides, the IC50 is 0.25 µg/mL in the data set on M. Tuberculosis [8] and over 100 µg/mL in data set [4]. The MIC against M. Tuberculosis [5] was found to be 1.55 µg/mL; in data set [6] (setting [10]), 2.63 µg/mL; in data set [7] (setting [12]), 2.43 µg/mL; with M. Tuberculosis [8], 2.8 µg/mL. Further, the IC90 in [1], in [2], in data set [3] and in [4] was over 100 µg/mL in each case.

Take `COC(=O)CC[C@@H](C)C1CCC2C3C([C@H](n4cc(-c5ccc(F)cc5)nn4)C(=O)[C@@]21C)[C@@]1(C)CC[C@@H](OC(C)=O)C[C@H]1C[C@H]3OC(C)=O` (stereo partly drawn) [Compound 3, (3R,5S,7R,10S,11S,13R)-11-(4-(4-fluorophenyl)-1H-1,2,3-triazol-1-yl)-17-((R)-5-methoxy-5-oxopentan-2-yl)-10,13-dimethyl-12-oxohexadecahydro-1H-cyclopenta[a]phenanthrene-3,7-diyl diacetate]: the IC50 is over 100 µg/mL in data set [1], 9.76 µg/mL in [2], over 100 µg/mL in data set [3] and over 100 µg/mL in data set [4]. Besides, the IC90 in data set [1], in data set [2], in [3] and in [4] was over 100 µg/mL each time.

On to `COC(=O)CC[C@@H](C)C1CCC2C3C([C@H](n4cc(-c5ccccn5)nn4)C(=O)[C@@]21C)[C@@]1(C)CC[C@@H](OC(C)=O)C[C@H]1C[C@H]3OC(C)=O` (stereo partly drawn) [Compound 4, (3R,5S,7R,10S,11S,13R)-17-((R)-5-methoxy-5-oxopentan-2-yl)-10,13-dimethyl-12-oxo-11-(4-(pyridin-2-yl)-1H-1,2,3-triazol-1-yl)hexadecahydro-1H-cyclopenta[a]phenanthrene-3,7-diyl diacetate], for which the IC50 is over 100 µg/mL in data set [1], 15.2 µg/mL in [2], over 100 µg/mL in data set [3] and over 100 µg/mL in [4]. Also, the IC90 was over 100 µg/mL in [1], 85.9 µg/mL in data set [2], over 100 µg/mL in [3] and over 100 µg/mL in data set [4].

`CCOC(=O)N[C@@H]1C(=O)[C@@]2(C)C(CCC2[C@H](C)CCC(=O)OC)C2C1[C@@]1(C)CC[C@@H](OC(C)=O)C[C@H]1C[C@H]2OC(C)=O` (stereo partly drawn) [Compound 5, (3R,5S,7R,10S,11S,13R)-11-((ethoxycarbonyl)amino)-17-((R)-5-methoxy-5-oxopentan-2-yl)-10,13-dimethyl-12-oxohexadecahydro-1H-cyclopenta[a]phenanthrene-3,7-diyl diacetate] gave a melting point of 82 to 85 °C. For the same molecule, in [1], the IC50 is over 100 µg/mL and the IC90 is over 100 µg/mL. In addition, in data set [2], the IC50 was found to be 34.2 µg/mL and the IC90 is over 100 µg/mL. In [3], the IC50 is over 100 µg/mL and the IC90 was over 100 µg/mL. In [4], the IC50 is over 100 µg/mL and the IC90 is over 100 µg/mL.

For `COC(=O)CC[C@@H](C)C1CCC2C3C([C@H](NC(=O)C4CCCN4)C(=O)[C@@]21C)[C@@]1(C)CC[C@@H](OC(C)=O)C[C@H]1C[C@H]3OC(C)=O` (stereo partly drawn) [Compound 6, (3R,5S,7R,10S,11S,13R)-17-((R)-5-methoxy-5-oxopentan-2-yl)-10,13-dimethyl-12-oxo-11-(pyrrolidine-2-carboxamido)hexadecahydro-1H-cyclopenta[a]phenanthrene-3,7-diyl diacetate], the melting point was in the range of 102.6 to 103.8 °C. Further, in data set [1], the IC50 was over 100 µg/mL and the IC90 is over 100 µg/mL. In addition, in data set [2], the IC50 is over 100 µg/mL and the IC90 was over 100 µg/mL. Also, in data set [3], the IC50 was over 100 µg/mL and the IC90 was over 100 µg/mL. In data set [4], the IC50 was over 100 µg/mL and the IC90 is over 100 µg/mL.

Take `COC(=O)CC[C@@H](C)C1CCC2C3C([C@H](NC(=O)C(CO)NC(=O)OC(C)(C)C)C(=O)[C@@]21C)[C@@]1(C)CC[C@@H](OC(C)=O)C[C@H]1C[C@H]3OC(C)=O` (stereo partly drawn) [Compound 7, (3R,5S,7R,10S,11S,13R)-11-(2-((tert-butoxycarbonyl)amino)-3-hydroxypropanamido)-17-((R)-5-methoxy-5-oxopentan-2-yl)-10,13-dimethyl-12-oxohexadecahydro-1H-cyclopenta[a]phenanthrene-3,7-diyl diacetate]: the IC50 in the data set on M. Tuberculosis [5] was 1.32 µg/mL; in data set [6] (setting [9]) it was 1.24 µg/mL; in data set [1], over 100 µg/mL; in data set [2], 18.2 µg/mL; in data set [7] (setting [11]), 0.58 µg/mL; in data set [3] it was over 100 µg/mL. Also, the results for the IC50 (with M. Tuberculosis [8]; in data set [4]) were 1.96 µg/mL and 76.2 µg/mL, respectively. The MIC was determined as 23.8 µg/mL in the data set with M. Tuberculosis [5], 9.03 µg/mL in data set [6] (setting [10]), 8.6 µg/mL in data set [7] (setting [12]) and 27.3 µg/mL with M. Tuberculosis [8]. The IC90 in [1], in [2], in data set [3] and in [4] was over 100 µg/mL in each case.

On to `COC(=O)CC[C@@H](C)C1CCC2C3C([C@H](NC(C)C)C(=O)[C@@]21C)[C@@]1(C)CC[C@@H](OC(C)=O)C[C@H]1C[C@H]3OC(C)=O` (stereo partly drawn) [Compound 10, (3R,5S,7R,10S,11S,13R)-11-(isopropylamino)-17-((R)-5-methoxy-5-oxopentan-2-yl)-10,13-dimethyl-12-oxohexadecahydro-1H-cyclopenta[a]phenanthrene-3,7-diyl diacetate], for which the IC50 was over 100 µg/mL in data set [1], 11.6 µg/mL in data set [2], over 100 µg/mL in [3] and over 100 µg/mL in data set [4]. For the same molecule, the IC90 in data set [1], in data set [2], in [3] and in data set [4] was over 100 µg/mL each time.

For the molecule `NNC(=O)c1ccncc1` [ISONIAZID, reference compound], the IC50 in the data set with M. Tuberculosis [5] worked out at 0.0024 µg/mL (≈ 0.0175 µM); in [6] (H37RA), 0.0019 µg/mL (≈ 0.0139 µM); in data set [7] (H37RA), 0.0023 µg/mL (≈ 0.0168 µM); in the data set with M. Tuberculosis [8], 0.0024 µg/mL (≈ 0.0175 µM). Also, the MIC in the data set on M. Tuberculosis [5] amounted to 0.0078 µg/mL (≈ 0.0569 µM); in data set [6] (H37RA) it was 0.074 µg/mL (≈ 0.54 µM); in data set [7] (H37RA) it was 0.075 µg/mL (≈ 0.547 µM); against M. Tuberculosis [8] it was 0.075 µg/mL (≈ 0.547 µM).

For the molecule `CC(=O)O[C@H]1C(=O)[C@@]2(C)[C@H]([C@H](OC(=O)c3ccccc3)[C@]3(O)C[C@H](OC(=O)[C@H](O)[C@@H](NC(=O)c4ccccc4)c4ccccc4)C(C)=C1C3(C)C)[C@]1(OC(C)=O)CO[C@@H]1C[C@@H]2O` [Paclitaxel, reference compound], the IC50 in data set [1] worked out at 0.0035 µg/mL (≈ 0.0041 µM); in [2], 0.0048 µg/mL (≈ 0.00562 µM); in data set [3], 0.128 µg/mL (≈ 0.15 µM); in data set [4], 0.137 µg/mL (≈ 0.161 µM). For the same molecule, the IC90 stood at 0.0706 µg/mL (≈ 0.0827 µM) in [1], 0.075 µg/mL (≈ 0.0878 µM) in data set [2], 5.71 µg/mL (≈ 6.69 µM) in data set [3] and 5.81 µg/mL (≈ 6.81 µM) in data set [4].

Take `CO[C@H]1/C=C/O[C@@]2(C)Oc3c(C)c(O)c4c(O)c(c(/C=N/N5CCN(C)CC5)c(O)c4c3C2=O)NC(=O)/C(C)=C\C=C\[C@H](C)[C@H](O)[C@@H](C)[C@@H](O)[C@@H](C)[C@H](OC(C)=O)[C@@H]1C` [RIFAMPICIN, reference compound]: the IC50 with M. Tuberculosis [5] is 0.0018 µg/mL (≈ 0.00219 µM); in [6] (setting [9]), 0.0018 µg/mL (≈ 0.00219 µM); in [7] (setting [11]), 0.0014 µg/mL (≈ 0.0017 µM); with M. Tuberculosis [8] it was 0.0021 µg/mL (≈ 0.00255 µM). Further, the MIC is 0.048 µg/mL (≈ 0.0583 µM) against M. Tuberculosis [5], 0.048 µg/mL (≈ 0.0583 µM) in data set [6] (setting [10]), 0.043 µg/mL (≈ 0.0523 µM) in data set [7] (setting [12]) and 0.051 µg/mL (≈ 0.062 µM) against M. Tuberculosis [8].
